The subject of assay [1] is Trichophyton rubrum strain NCPF0118. As to the kind of experiment: Ex vivo human nail fragment model, treatment of established infection (cfu recovered). Type of assay: cell-based. The conditions noted are these: Experiment 5; fluconazole at approximately 100×MIC100; 14 d and 28 d, daily. As for the experimental part:
For antifungal efficacy studies with human toe nails, a solution of 50% (w/v) PEG 8000 (Sigma-Aldrich; Cat No P2139) was prepared by autoclaving and then diluting with sterile 50% (w/v) urea solution (Sigma-Aldrich; Cat No 51457). This solution was mixed thoroughly by vortexing and allowed to stabilise at 50° C. for up to 2 h. After stabilisation, the temperature was allowed to drop to below 40° C. and a concentrated, filter-sterilised solution of Novexatin® (NP213), dissolved in deionised water was added. Final concentrations of PEG 8000 of 50% (w/v), urea of 0-20% (w/v) and Novexatin® (NP213) of 0-10% (w/v) were used in the experiments described below.
On arrival, the cultures were transferred to a Petri dish containing sterile Sabouraud Dextrose agar (Sigma-Aldrich; Cat No 84088, or equivalent) and grown for up to 7 d at 30° C. The resulting growth was scraped off and re-suspended in Sabouraud's liquid medium (Oxoid; Cat No CM 147, or equivalent) containing […] dimethyl sulfoxide (DMSO) as cryoprotectant to create a culture stock. The fungus was stored in 0.5 ml aliquots in 2 ml screw-capped polypropylene vials (Cryovials) at −80° C. Seven days prior to experimental use, 50 μl of the culture stock was used to inoculate a slope of Potato Dextrose agar (Merck; Cat No VM556130 609, or equivalent), which was incubated at 30° C. for up to 7 d. The surface of the resulting growth was gently perturbed in 3 ml of sterile distilled/deionised water. After filtration through 2 layers of sterile surgical gauze to remove debris and larger clumps of biomass, the absorbance of the resultant spore suspension was measured at 530 nm, then adjusted to the 0.5 MacFarland standard (OD approx. 0.15)^2.
Human toe nails were obtained from a podiatrist in Aberdeen following a successful application to the Grampian Local Research Ethics Committee. […] Large toe nails were cut into 4 pieces, each approximately 1 cm^2 in area, using nail clippers. Nails of normal thickness (≦2 mm) were chosen. The 4 fragments cut from each single nail were placed in quadrants marked on Petri-dishes containing phosphate buffered saline rendered solid with 1.2% (w/v) Technical Agar No. 3 (Oxoid; Cat No LP0013, or equivalent), subsequently referred to as PBS agar. The nail fragments were of irregular shape, so to ensure that each nail received the appropriate amount of the treatment solutions, the surface area was measured by photographing the nails over graph paper and determining the number of 1mm^2 squares covered by each nail. The thickness of the nails was measured with a micrometer and nails distributed among treatment groups, to avoid nail thickness providing an additional experimental variable.
Twenty four nail fragments from 6 whole large toenails were each inoculated with 10 μl of a spore suspension of T. rubrum NCPF0118 which was prepared as described above. The inoculum was applied to the ventral side of the nail (i.e. the side next to the skin in situ). The nails were incubated for 7 d at 30° C. to allow the fungus to infect the nail tissue. After this pre-incubation period, 12 of the fragments were assigned to each of 2 different treatment protocols, involving daily treatment with 2 different vehicle solutions, each containing a control and 3 different concentrations of Novexatin® (NP213). These vehicle solutions were: 50% (w/v) PEG 8000, and 50% (w/v) PEG 8000 plus 20% (w/v) urea. The concentrations of Novexatin® (NP213) studied were 0%, 1%, 5% and 10% (w/v). The solutions were applied at a volume of 10 μl/cm^2, corrected for the surface area of the different nail fragments as described above. The applied solution was spread over the dorsal side of the nail, to mimic the intended clinical treatment and the ventral side of the nail rested on the agar surface. Each time the nails were treated, they were transferred to a new sterile Petri dish containing PBS agar to minimise any build-up of fungal growth on the agar. Nail fragments were treated daily for 28 days. […]

Assay [2] concerns T. rubrum NCPF0118. The experiment in a line: In vitro MIC100 testing. Type of assay: cell-based, Trichophyton rubrum. The note with it: Trichophyton rubrum; versus T. rubrum NCPF0118 in vitro; read-out: concentration equal to 100× the MIC100.
In assay [3] the test system is Candida. As to the kind of experiment: Ex vivo human nail fragment model, treatment of Candida infection. Type of assay: cell-based. The text has this:
Trichophyton rubrum strain NCPF0118 was obtained from the National Collection of Pathogenic Fungi, Bristol, UK. Clinical isolates of T. rubrum DM2006 1661, T. rubrum DM2006 1358, T. mentagrophytes DM2006 1503, T. mentagrophytes DM2006 1498 were isolated from patients suffering a range of tinea infections and were purchased from Professor Michel Monod (Service de Dermatologie, Université de Lausanne, Switzerland). Clinical isolates of Candida samples were also obtained from patients suffering from Candidal infection.
The procedure was carried out as described for Example 1 above with modifications to the vehicle, and fungal strains used. Each nail was inoculated with 10 μl of a spore suspension of Candida. Following inoculation the nails were treated with 10% (w/v) Novexatin® (NP213) in a vehicle solution of 50% (w/v) PEG 8000 plus 20% (w/v) urea; 10% (w/v) NP339 in a vehicle solution of 50% (w/v) PEG 8000 plus 20% (w/v) urea; 10% (w/v) NP339 in a vehicle solution of water; a control solution of 50% (w/v) PEG 8000 plus 20% (w/v) urea; a control solution of water; a solution of 16 μg/ml Itraconazole® and 1.6% (w/v) DMSO in a vehicle solution of water and a control solution of 1.6% (w/v) DMSO. As for Experiment 1 above, nail fragments were treated daily for up to 28 days. […]
At the end of the treatment period, the nail fragments were placed in sterile 2 ml microcentrifuge tubes containing 450 μl of a suspension broth consisting of Sabouraud's Liquid Medium, pH 5.6, containing approximately 100 mg of sterile zirconia beads (0.5 mm diameter). […] Colonies were counted on dishes that contained between 20 and 200 colonies in total, and the total number of cfu present in each sample was calculated. […] The counts were corrected for the surface area of the nails studied to give cfu/cm^2, transformed to log10 and means and standard errors of the mean were calculated using GraphPad Prism 4 (GraphPad, San Diego, Calif.). […] When very low numbers of colonies were detected, as in Experiment 3, the calculated cfu values are shown in order to indicate trends.

≈ marks a conversion by molar mass, not a printed value. Non-standard residues stand in square brackets, D forms with d. No end group written: not given here.

As to `OC(Cn1cncn1)(Cn1cncn1)c1ccc(F)cc1F` [fluconazole, 2-(2,4-difluorophenyl)-1,3-bis(1H-1,2,4-triazol-1-yl)propan-2-ol, reference compound], the outcome of treatment in assay [1] is reported as “unsuccessful”. The MIC in assay [2] worked out at 360 µg/mL (≈ 1180 µM).
As to “dRdRdRdRdRdRdRdRdRdRdRdRdR ([dR][dR][dR][dR][dR][dR][dR][dR][dR][dR][dR][dR][dR]) [NP339]”, in assay [3] (Experiments 6 and 7, 10% (w/v), 14 d or 28 d, daily), the “recoverable fungal growth after treatment” value is on record as “no recoverable fungal growth”.
Consider `CN(C/C=C/C#CC(C)(C)C)Cc1cccc2ccccc12` [Terbinafine®, [(2E)-6,6-dimethylhept-2-en-4-yn-1-yl](methyl)(naphthalen-1-ylmethyl)amine, reference compound], for which the outcome of treatment in assay [3] (Experiment 7, 10 μg/ml, 14 d and 28 d) is given as “unsuccessful”.

These data come from patent publication US20130109049A1, “Method of Establishing a Fungal Nail Infection” (NOVABIOTICS LIMITED, priority 2009, published 2013).
